Reference: patent publication US9085606B2, “Beta amino acid derivatives as integrin antagonists” (Saint Louis University, priority 2012, dated 2015)

Key:
[1] = biological target: T1, Recombinant human integrin αvβ6 (Homo sapiens, UniProt P06756+P18564); assay: Solid Phase Receptor Assay for αvβ6 Function; conditions: binding to LAP-coated plate; read-out: αvβ6 SPRA IC50
T1 construct: purchased R&D Systems 3817-AV
Description: Solid Phase Receptor Assay for αvβ6 Function.
(§1) Wells were washed 3 times with 150 μL TBS+, and 150 μL of blocking buffer (TBS+ with 1% bovine serum albumin, Sigma A7906) were added. The plate was incubated for 1 hr at 37° C., and then washed 3× with TBS+ buffer. […] Compounds were diluted 1:100 into the integrin solution and then 50 μL added to empty wells of the washed LAP-coated plate according to a standard template with each sample repeated in triplicate. After incubation for two hours at room temperature, the plate was washed 3× with 150 μL of TBS+ buffer. To each well, 50 μL of biotinylated anti-αv antibody (R&D Systems, BAF1219) at 0.5 μg/mL in TBS+/0.1% BSA were added and the plate was covered and incubated for 1 hr at room temperature. After washing the plate 3× with 150 μL of TBS+ buffer, 50 μL of streptavidin-conjugated horseradish peroxidase (R&D Systems, DY998) diluted in TBS+ blocking buffer were added to the wells and the plate incubated for 20 min at room temperature. The plate was washed 3× with TBS+ buffer followed by 50 μL of TMB substrate (Sigma T4444) added to each well and the plate incubated for 20 min at room temperature. The reaction was optionally stopped with 25 μL of Stop Solution (Sigma S5689). Plates were read by colorimetric detection at 650 nm wavelength using a Tecan Safire II plate reader.

[2] = biological target: T2, Recombinant human integrin α5β1 (Homo sapiens, UniProt P05556+P08648); assay: Solid Phase Receptor Assay for α5β1 Function; conditions: binding to fibronectin-coated plate; read-out: α5β1 SPRA IC50
T2 construct: purchased R&D Systems 3230-A5
T2 sequence (P08648 42-995 limits assumed): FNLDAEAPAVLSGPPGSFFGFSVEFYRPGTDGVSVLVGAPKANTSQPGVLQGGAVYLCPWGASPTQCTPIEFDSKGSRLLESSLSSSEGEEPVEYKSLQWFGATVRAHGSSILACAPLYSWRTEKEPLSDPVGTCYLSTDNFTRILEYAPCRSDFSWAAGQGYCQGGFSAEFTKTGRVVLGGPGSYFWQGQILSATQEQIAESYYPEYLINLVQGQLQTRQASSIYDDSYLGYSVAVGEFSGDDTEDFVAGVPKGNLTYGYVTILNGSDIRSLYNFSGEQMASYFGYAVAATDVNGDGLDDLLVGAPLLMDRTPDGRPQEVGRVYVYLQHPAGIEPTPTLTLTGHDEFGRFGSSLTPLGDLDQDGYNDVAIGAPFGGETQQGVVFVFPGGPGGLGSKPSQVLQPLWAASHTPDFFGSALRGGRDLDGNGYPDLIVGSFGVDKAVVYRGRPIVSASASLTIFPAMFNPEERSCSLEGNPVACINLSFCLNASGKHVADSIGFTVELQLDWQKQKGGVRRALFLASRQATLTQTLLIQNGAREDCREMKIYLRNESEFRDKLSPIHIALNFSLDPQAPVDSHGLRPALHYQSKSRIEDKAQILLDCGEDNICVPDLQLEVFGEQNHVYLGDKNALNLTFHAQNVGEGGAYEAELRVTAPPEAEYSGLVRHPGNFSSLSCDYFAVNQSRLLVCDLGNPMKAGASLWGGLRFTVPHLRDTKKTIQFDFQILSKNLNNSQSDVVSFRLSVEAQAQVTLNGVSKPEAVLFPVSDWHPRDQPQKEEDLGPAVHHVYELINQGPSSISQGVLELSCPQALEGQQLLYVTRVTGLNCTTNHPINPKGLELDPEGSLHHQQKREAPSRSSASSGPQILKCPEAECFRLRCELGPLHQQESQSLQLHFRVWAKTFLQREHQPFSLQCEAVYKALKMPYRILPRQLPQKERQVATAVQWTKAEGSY
T2 sequence (P05556 21-728 limits assumed): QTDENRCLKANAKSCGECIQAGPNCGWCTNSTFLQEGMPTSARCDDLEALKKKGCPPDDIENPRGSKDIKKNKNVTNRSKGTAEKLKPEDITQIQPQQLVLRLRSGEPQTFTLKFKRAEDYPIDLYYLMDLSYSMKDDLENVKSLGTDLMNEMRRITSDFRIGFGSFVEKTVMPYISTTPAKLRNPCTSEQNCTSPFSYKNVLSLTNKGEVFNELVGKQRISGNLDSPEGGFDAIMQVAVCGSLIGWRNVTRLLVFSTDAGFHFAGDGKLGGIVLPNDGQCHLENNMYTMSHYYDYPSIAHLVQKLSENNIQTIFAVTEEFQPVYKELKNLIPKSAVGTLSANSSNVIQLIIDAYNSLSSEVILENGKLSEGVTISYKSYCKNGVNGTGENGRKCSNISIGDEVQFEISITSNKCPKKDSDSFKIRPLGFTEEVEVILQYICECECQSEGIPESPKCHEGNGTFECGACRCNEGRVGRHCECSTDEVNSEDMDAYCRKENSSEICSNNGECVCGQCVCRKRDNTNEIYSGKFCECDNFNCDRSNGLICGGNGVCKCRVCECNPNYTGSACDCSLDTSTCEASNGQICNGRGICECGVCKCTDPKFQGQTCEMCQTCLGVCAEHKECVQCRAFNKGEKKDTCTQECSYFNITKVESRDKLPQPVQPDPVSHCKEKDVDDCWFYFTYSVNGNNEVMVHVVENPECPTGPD
Description: Solid Phase Receptor Assay for α5β1 Function.
Wells were washed 3 times with 150 μL TBS+ and 150 μl of blocking buffer (TBS+ with 1% bovine serum albumin, Sigma A7906) were added. The plate was incubated for 1 hr at 37° C. and then washed 3× with TBS+ buffer. […] Compounds were diluted 1:100 into the integrin solution and then 50 μL added to empty wells of the washed fibronectin-coated plate according to a standard template with each sample repeated in triplicate. After incubation for two hours at room temperature, the plate was washed 3× with 150 μL of TBS+ buffer. To each well, 50 μL of biotinylated anti-α5 antibody (R&D Systems, BAF1864) at 0.5 ug/mL in TBS+/0.1% BSA were added and the plate covered and incubated for 1 hr at room temperature. After washing the plate 3× with 150 μL of TBS+ buffer, 50 μL of streptavidin-conjugated horseradish peroxidase (R&D Systems, DY998) diluted in TBS+ blocking buffer were added to the wells and the plate incubated for 20 min at room temperature. The plate was washed 3× with TBS+ buffer followed by 50 μL of room temperature TMB substrate (Sigma, T444) added to each well and the plate incubated for 20 min at room temperature. The reaction was optionally stopped with 25 μL of Stop Solution (Sigma S5689). Plates were read by colorimetric detection at 650 nm wavelength using a Tecan Safire II plate reader.

[3] = biological target: T3, Recombinant human integrin αvβ5 (Homo sapiens, UniProt P06756+P18084); assay: Solid Phase Receptor Assay for αvβ5 Function; conditions: binding to vitronectin-coated plate; read-out: αvβ5 SPRA IC50
T3 construct: purchased R&D Systems 2528-AV
T3 sequence (P06756 31-992 limits assumed): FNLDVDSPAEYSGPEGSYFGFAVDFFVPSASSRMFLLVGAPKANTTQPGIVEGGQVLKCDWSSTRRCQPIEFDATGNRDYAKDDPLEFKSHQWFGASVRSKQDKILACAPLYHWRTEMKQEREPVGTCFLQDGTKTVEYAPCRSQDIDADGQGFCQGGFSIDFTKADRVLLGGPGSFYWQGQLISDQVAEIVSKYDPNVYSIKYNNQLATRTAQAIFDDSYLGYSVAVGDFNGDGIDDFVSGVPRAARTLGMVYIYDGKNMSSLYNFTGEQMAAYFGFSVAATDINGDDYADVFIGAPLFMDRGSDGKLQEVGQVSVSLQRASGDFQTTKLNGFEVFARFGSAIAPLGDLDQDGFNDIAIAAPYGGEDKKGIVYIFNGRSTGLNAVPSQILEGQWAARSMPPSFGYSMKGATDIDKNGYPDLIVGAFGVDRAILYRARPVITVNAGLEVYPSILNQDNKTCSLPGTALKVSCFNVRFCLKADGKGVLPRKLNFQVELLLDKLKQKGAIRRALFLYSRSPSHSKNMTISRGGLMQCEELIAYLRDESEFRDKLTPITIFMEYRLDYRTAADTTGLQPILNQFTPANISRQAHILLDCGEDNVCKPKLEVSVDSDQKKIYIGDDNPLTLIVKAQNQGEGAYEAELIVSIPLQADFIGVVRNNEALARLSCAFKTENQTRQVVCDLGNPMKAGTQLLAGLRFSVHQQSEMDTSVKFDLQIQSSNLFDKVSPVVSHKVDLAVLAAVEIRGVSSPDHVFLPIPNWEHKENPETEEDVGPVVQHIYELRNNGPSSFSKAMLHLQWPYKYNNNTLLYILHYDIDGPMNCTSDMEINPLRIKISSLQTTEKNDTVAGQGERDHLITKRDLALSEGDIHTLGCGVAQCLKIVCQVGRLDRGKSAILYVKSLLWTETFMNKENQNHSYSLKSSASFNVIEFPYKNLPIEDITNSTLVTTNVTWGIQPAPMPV
T3 sequence (P18084 24-719 limits assumed): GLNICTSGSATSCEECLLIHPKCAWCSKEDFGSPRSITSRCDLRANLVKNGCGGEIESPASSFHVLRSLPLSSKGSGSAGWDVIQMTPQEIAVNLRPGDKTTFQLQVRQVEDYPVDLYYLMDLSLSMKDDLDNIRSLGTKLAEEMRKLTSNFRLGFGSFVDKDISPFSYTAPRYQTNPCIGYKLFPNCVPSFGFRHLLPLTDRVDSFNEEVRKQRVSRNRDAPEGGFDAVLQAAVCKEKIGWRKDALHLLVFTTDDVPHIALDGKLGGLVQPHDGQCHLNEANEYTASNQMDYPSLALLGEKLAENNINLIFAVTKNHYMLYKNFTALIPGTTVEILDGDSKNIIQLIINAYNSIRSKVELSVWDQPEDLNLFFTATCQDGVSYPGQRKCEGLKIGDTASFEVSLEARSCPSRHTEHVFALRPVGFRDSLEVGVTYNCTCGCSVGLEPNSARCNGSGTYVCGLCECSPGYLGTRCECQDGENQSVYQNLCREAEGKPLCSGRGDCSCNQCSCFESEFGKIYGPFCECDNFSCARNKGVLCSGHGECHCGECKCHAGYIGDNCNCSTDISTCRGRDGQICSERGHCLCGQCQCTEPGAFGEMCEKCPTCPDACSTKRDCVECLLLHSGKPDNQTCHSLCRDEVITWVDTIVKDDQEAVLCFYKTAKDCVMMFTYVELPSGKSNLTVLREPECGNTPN
Description: Solid Phase Receptor Assay for αvβ5 Function.
as §1, with “150 μL TBS+ and 150” for “150 μL TBS+, and 150”, “at 37° C. and then” for “at 37° C., and then”, “the washed vitronectin-coated plate according” for “the washed LAP-coated plate according”, “TBS+/0.1% BSA at 0.5 μg/mL were added” for “TBS+/0.1% BSA were added”, “the plate covered and” for “the plate was covered and”, “peroxidase (R&D Systems DY998) diluted” for “peroxidase (R&D Systems, DY998) diluted”

[4] = biological target: T4, Recombinant human integrin αvβ3 (Homo sapiens, UniProt P05106+P06756); assay: Solid Phase Receptor Assay for αvβ3 Function; conditions: binding to vitronectin-coated plate; read-out: αvβ3 SPRA IC50
T4 construct: purchased R&D Systems 3050-AV
T4 sequence (P06756 31-992 limits assumed): as the sequence (P06756 31-992 limits assumed) above
T4 sequence (P05106 27-718 limits assumed): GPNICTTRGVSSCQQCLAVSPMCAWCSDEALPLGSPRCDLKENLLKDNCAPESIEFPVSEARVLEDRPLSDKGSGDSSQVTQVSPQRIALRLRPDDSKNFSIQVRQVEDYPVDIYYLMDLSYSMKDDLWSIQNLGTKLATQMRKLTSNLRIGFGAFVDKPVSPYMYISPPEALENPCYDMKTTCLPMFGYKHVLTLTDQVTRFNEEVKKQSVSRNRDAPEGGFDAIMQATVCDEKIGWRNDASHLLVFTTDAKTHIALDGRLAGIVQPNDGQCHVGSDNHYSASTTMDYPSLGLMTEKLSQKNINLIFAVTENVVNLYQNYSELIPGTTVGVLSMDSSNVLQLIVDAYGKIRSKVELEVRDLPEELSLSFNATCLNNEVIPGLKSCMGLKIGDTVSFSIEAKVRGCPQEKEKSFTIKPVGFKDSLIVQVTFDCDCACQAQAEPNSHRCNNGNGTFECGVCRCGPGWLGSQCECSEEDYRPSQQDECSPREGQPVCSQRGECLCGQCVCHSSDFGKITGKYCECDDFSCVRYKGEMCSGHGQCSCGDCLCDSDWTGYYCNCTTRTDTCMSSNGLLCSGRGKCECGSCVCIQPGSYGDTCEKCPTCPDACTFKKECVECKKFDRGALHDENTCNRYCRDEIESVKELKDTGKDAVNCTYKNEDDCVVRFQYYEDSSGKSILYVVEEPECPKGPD
Description: Solid Phase Receptor Assay for αvβ3 Function.
Wells were washed 3 times with 150 μL TBS+ and 150 μL of blocking buffer (TBS+ with 1% bovine serum albumin, Sigma A7906) were added. The plate was incubated for 1 hr at 37° C. and then washed 3× with TBS+ buffer. […] Compounds were diluted 1:100 into the integrin solution and then 50 μL added to empty wells of the washed vitronectin-coated plate according to a standard template with each sample repeated in triplicate. After incubation for two hours at room temperature, the plate was washed 3× with 150 μL of TBS+ buffer. To each well, 50 μL of biotinylated anti-αv antibody (R&D Systems, BAF1219) at 0.5 μg/mL in TBS+/0.1% BSA were added and the plate covered and incubated for 1 hr at room temperature. After washing the plate 3× with 150 μL of TBS+ buffer, 50 μL of streptavidin-conjugated horseradish peroxidase (R&D Systems, DY998) diluted in TBS+ blocking buffer were added to the wells and the plate incubated for 20 min at room temperature. The plate was washed 3× with TBS+ buffer followed by 50 μL of TMB substrate (Sigma, T4444) added to each well and the plate was incubated for 20 min at room temperature. The reaction was optionally stopped with 25 μL of Stop Solution (Sigma, S5689). Plates were read by colorimetric detection at 650 nm wavelength using a Tecan S afire II plate reader.

T1 sequence (P06756 31-992 limits assumed): as the sequence (P06756 31-992 limits assumed) above
T1 sequence (P18564 22-707 limits assumed): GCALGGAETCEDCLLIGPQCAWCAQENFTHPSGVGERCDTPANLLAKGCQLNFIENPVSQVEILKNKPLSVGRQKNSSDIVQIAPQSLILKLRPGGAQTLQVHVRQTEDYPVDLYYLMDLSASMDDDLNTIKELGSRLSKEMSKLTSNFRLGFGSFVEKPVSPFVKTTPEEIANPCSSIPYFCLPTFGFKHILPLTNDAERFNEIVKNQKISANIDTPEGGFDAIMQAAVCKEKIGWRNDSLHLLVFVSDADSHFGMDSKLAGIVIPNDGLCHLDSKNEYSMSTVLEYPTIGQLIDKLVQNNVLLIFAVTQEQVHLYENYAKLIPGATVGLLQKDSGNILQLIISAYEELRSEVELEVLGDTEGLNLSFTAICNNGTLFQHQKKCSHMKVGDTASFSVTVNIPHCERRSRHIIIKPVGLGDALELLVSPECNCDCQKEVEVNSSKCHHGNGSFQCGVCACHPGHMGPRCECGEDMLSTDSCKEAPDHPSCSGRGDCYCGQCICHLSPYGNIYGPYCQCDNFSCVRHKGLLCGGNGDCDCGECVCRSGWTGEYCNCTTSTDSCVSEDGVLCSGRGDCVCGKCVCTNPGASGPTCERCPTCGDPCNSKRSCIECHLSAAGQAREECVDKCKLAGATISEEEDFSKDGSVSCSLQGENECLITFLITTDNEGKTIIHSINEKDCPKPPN

Row | SMILES | IC50 [1] | IC50 [2] | IC50 [3] | IC50 [4]
1 | CC(C)(C)c1cc(Br)cc([C@H](CC(=O)O)NC(=O)CNC(=O)c2cccc(NC3=NCCN3)c2)c1 [Example 7, (S)-3-(3-bromo-5-(tert-butyl)phenyl)-3-(2-(3-((4,5-dihydro-1H-imidazol-2-yl)amino)benzamido)acetamido)propanoic acid] | 200 pM | 700 pM | 500 pM | 1300 pM
2 | O=C(O)C[C@H](NC(=O)CNC(=O)c1cc(O)cc(NC2=NCC(O)CN2)c1)c1cc(Cl)cc(C2(CF)CCOCC2)c1 (stereo partly drawn) [Example 20, (3S)-3-(3-chloro-5-(4-(fluoromethyl)tetrahydro-2H-pyran-4-yl)phenyl)-3-(2-(3-hydroxy-5-((5-hydroxy-1,4,5,6-tetrahydropyrimidin-2-yl)amino)benzamido)acetamido)propanoic acid] | 1400 pM | 2400 pM | 500 pM | 3700 pM
3 | CC(C)(C)c1cc(C#N)cc([C@H](CC(=O)O)NC(=O)CNC(=O)c2cc(O)cc(NC3=NCC(O)CN3)c2)c1 (stereo partly drawn) [Example 12, (3S)-3-(3-(tert-butyl)-5-cyanophenyl)-3-(2-(3-hydroxy-5-((5-hydroxy-1,4,5,6-tetrahydro-pyrimidin-2-yl)amino)benzamido)acetamido)propanoic acid] | 400 pM | 300 pM | 200 pM | 2800 pM
4 | CC(C)(C)c1cc(Br)cc([C@H](CC(=O)O)NC(=O)CNC(=O)c2cncc(NC(=N)N)c2)c1 [Example 6, (S)-3-(3-bromo-5-(tert-butyl)phenyl)-3-(2-(5-guanidinonicotinamido)acetamido) propanoic acid] | 500 pM | 1000 pM | 2200 pM | 3500 pM
5 | CC(C)(O)c1cc(Br)cc([C@H](CC(=O)O)NC(=O)CNC(=O)c2cc(O)cc(NC3=NCC(O)CN3)c2)c1 (stereo partly drawn) [Example 3, (3S)-3-(3-bromo-5-(2-hydroxypropan-2-yl)phenyl)-3-(2-(3-hydroxy-5-((5-hydroxy-1,4,5,6-tetrahydropyrimidin-2-yl)amino)benzamido)acetamido)propanoic acid] | 700 pM | 300 pM | 700 pM | 2000 pM
6 | CC(C)(C)c1cc(Br)cc([C@H](CC(=O)O)NC(=O)CNC(=O)c2cncc(NC3=NCC(O)CN3)c2)c1 (stereo partly drawn) [Example 8, (3S)-3-(3-bromo-5-(tert-butyl)phenyl)-3-(2-(5-((5-hydroxy-1,4,5,6-tetrahydropyrimidin-2-yl)amino)nicotinamido)acetamido)propanoic acid] | 500 pM | 400 pM | 500 pM | 1500 pM
7 | CC(C)(C)c1cc(Br)c(O)c([C@H](CC(=O)O)NC(=O)CNC(=O)c2cc(O)cc(NC3=NCC(O)CN3)c2)c1 (stereo partly drawn) [Example 1, (3S)-3-(3-bromo-5-(tert-butyl)-2-hydroxyphenyl)-3-(2-(3-hydroxy-5-((5-hydroxy-1,4,5,6-tetrahydropyrimidin-2-yl)amino)benzamido)acetamido)propanoic acid] | 400 pM | 500 pM | 47000 pM | 5100 pM
8 | CC(C)(O)c1cc(Cl)cc([C@H](CC(=O)O)NC(=O)CNC(=O)c2cc(O)cc(NC3=NCC(O)CN3)c2)c1 (stereo partly drawn) [Example 4, (3S)-3-(3-chloro-5-(2-hydroxypropan-2-yl)phenyl)-3-(2-(3-hydroxy-5-((5-hydroxy-1,4,5,6-tetrahydropyrimidin-2-yl)amino)benzamido)acetamido)propanoic acid] | 500 pM | 700 pM | 400 pM | 2300 pM
9 | CC(C)(CO)c1cc(Cl)cc([C@H](CC(=O)O)NC(=O)CNC(=O)c2cc(O)cc(NC3=NCC(O)CN3)c2)c1 (stereo partly drawn) [Example 15, (3S)-3-(3-chloro-5-(1-hydroxy-2-methylpropan-2-yl)phenyl)-3-(2-(3-hydroxy-5-((5-hydroxy-1,4,5,6-tetrahydropyrimidin-2-yl)amino)benzamido)acetamido)propanoic acid] | 400 pM | 400 pM | 400 pM | 3300 pM
10 | CC(C)(C)c1cc(Br)cc([C@H](CC(=O)O)NC(=O)CNC(=O)c2cc(O)cc(NC3=NCC(O)CN3)c2)c1O (stereo partly drawn) [Example 2, (3S)-3-(5-bromo-3-(tert-butyl)-2-hydroxyphenyl)-3-(2-(3-hydroxy-5-((5-hydroxy-1,4,5,6-tetrahydropyrimidin-2-yl)amino)benzamido)acetamido)propanoic acid] | 700 pM | 500 pM | 1000 pM | 1800 pM
11 | CC(C)(O)c1cc([C@H](CC(=O)O)NC(=O)CNC(=O)c2cc(O)cc(NC3=NCC(O)CN3)c2)cc(C(F)(F)F)c1 (stereo partly drawn) [Example 13, (3S)-3-(2-(3-hydroxy-5-((5-hydroxy-1,4,5,6-tetrahydropyrimidin-2-yl)amino)benzamido)acetamido)-3-(3-(2-hydroxypropan-2-yl)-5-(trifluoromethyl)phenyl)propanoic acid] | 600 pM | 900 pM | 300 pM | 1800 pM
12 | CC(C)(C)c1cc([C@H](CC(=O)O)NC(=O)CNC(=O)c2cncc(NC(=N)N)c2)cc(C(C)(C)C)c1 [Example 10, (S)-3-(3,5-di-tert-butylphenyl)-3-(2-(5-guanidinonicotinamido)acetamido)propanoic acid] | 1200 pM | 500 pM | 71000 pM | 172000 pM
13 | O=C(O)C[C@H](NC(=O)CNC(=O)c1cc(O)cc(NC2=NCC(O)CN2)c1)c1cc(Cl)cc(C2(CO)CCOCC2)c1 (stereo partly drawn) [Example 17, (3S)-3-(3-chloro-5-(4-(hydroxymethyl)tetrahydro-2H-pyran-4-yl)phenyl)-3-(2-(3-hydroxy-5-((5-hydroxy-1,4,5,6-tetrahydropyrimidin-2-yl)amino)benzamido)acetamido)propanoic acid] | 500 pM | 400 pM | 500 pM | 4000 pM
